Measured values taken from PubChem BioAssay (NCI).
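Growth conditions: 96-well plates. Treatment: test compound, 48 hours, 5 concentrations. Analysis: linear interpolation between bracketing concentrations; unreached endpoints set to highest concentration. TGI denotes the concentration required for complete inhibition of growth.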

Experiments:
Assay in all cases: NCI anticancer screen, dose series, 48 h
PC-3 prostate = system: PC-3 prostate
LOX IMVI melanoma = system: LOX IMVI melanoma
SF-268 CNS = system: SF-268 CNS
HOP-92 NSCLC = system: HOP-92 NSCLC
CCRF-CEM leukemia = system: CCRF-CEM leukemia
NCI-H460 lung = system: NCI-H460 lung
NCI-H23 lung = system: NCI-H23 lung
NCI/ADR-RES ovarian = system: NCI/ADR-RES ovarian
A498 renal = system: A498 renal
MDA-MB-435 = system: MDA-MB-435
UACC-62 melanoma = system: UACC-62 melanoma
MDA-MB-231 breast = system: MDA-MB-231 breast
SK-MEL-28 melanoma = system: SK-MEL-28 melanoma
UO-31 renal = system: UO-31 renal
MDA-N = system: MDA-N
786-0 renal = system: 786-0 renal
TK-10 renal = system: TK-10 renal
SN12C renal = system: SN12C renal
A549 NSCLC = system: A549 NSCLC
MALME-3M melanoma = system: MALME-3M melanoma

| Structure (SMILES) | TGI (PC-3 prostate) [µM] | TGI (LOX IMVI melanoma) [µM] | TGI (SF-268 CNS) [µM] | TGI (HOP-92 NSCLC) [µM] | TGI (CCRF-CEM leukemia) [µM] | TGI (NCI-H460 lung) [µM] | TGI (NCI-H23 lung) [µM] | TGI (NCI/ADR-RES ovarian) [µM] | TGI (A498 renal) [µM] | TGI (MDA-MB-435) [µM] | TGI (UACC-62 melanoma) [µM] | TGI (MDA-MB-231 breast) [µM] | TGI (SK-MEL-28 melanoma) [µM] | TGI (UO-31 renal) [µM] | TGI (MDA-N) [µM] | TGI (786-0 renal) [µM] | TGI (TK-10 renal) [µM] | TGI (SN12C renal) [µM] | TGI (A549 NSCLC) [µM] | TGI (MALME-3M melanoma) [µM] |
| --- | --- | --- | --- | --- | --- | --- | --- | --- | --- | --- | --- | --- | --- | --- | --- | --- | --- | --- | --- | --- |
| COc1ccc2oc(C(=O)N3CC(CCl)c4ccc(N)cc43)cc2c1 (configuration not stated) | > 21.3 | 32 | 9.61 | 18.7 | 9.17 | 1.74 | 1.1 | 0.758 | 0.865 | 1.24 | 0.496 | > 26.7 | 2.55 | 0.617 | 1.82 | 0.277 | 7.12 | 8.5 | > 100 | – |
| CCOC1CCN(C(=O)c2ccccc2)O1 (configuration not stated) | > 10 | > 10 | > 10 | – | > 10 | > 10 | > 10 | > 10 | – | > 10 | – | > 10 | > 10 | > 10 | > 10 | > 10 | > 10 | > 10 | > 10 | > 10 |
| COC(=O)C1(O)C(c2ccccc2)NC2(C)CCCC21 (configuration not stated) | > 100 | > 100 | > 100 | – | > 100 | – | > 100 | > 100 | > 100 | > 100 | > 100 | > 100 | > 100 | > 100 | > 100 | > 100 | > 100 | > 100 | > 100 | > 100 |
| C1=NCCOCCN=Cc2ccc(cc2)OCc2cccc(n2)COc2ccc1cc2 | > 100 | – | > 100 | > 100 | > 100 | > 100 | > 100 | > 100 | > 100 | > 100 | > 100 | > 100 | > 100 | > 100 | > 100 | > 100 | > 100 | > 100 | > 100 | > 100 |
| CN(C)N=Nc1ccc2[nH]c(=O)[nH]c2c1 | > 100 | > 100 | > 100 | – | > 100 | > 100 | > 100 | > 100 | > 100 | > 100 | > 100 | > 100 | > 100 | > 100 | > 100 | > 100 | > 100 | > 100 | > 100 | > 100 |
| C=CCCC(=O)C(=[N+]=[N-])C(=O)CCC(=O)c1ccccc1 | > 10 | > 10 | > 10 | > 10 | – | > 10 | > 10 | – | > 10 | > 10 | > 10 | > 10 | > 10 | > 10 | > 10 | > 10 | > 10 | > 10 | > 10 | > 10 |
| CNC(=S)/C(C#N)=C(\N)N1CCCC1 | > 100 | – | > 100 | – | > 100 | > 100 | > 100 | > 100 | > 100 | > 100 | > 100 | > 100 | > 100 | > 100 | > 100 | > 100 | > 100 | > 100 | > 100 | > 100 |
| Cc1cc2nnc(C(N)=O)c(N)c2cc1C | > 100 | > 100 | > 100 | > 100 | > 100 | > 100 | > 100 | > 100 | > 100 | > 100 | > 100 | > 100 | – | > 100 | > 100 | 68.3 | > 100 | > 100 | > 100 | > 100 |
| CC(=O)NC1(C)C(C)C2CC1C(C)C2(C)C (configuration not stated) | > 100 | – | > 100 | > 100 | > 100 | > 100 | > 100 | – | > 100 | > 100 | > 100 | > 100 | > 100 | > 100 | > 100 | > 100 | > 100 | > 100 | > 100 | > 100 |
| Nc1c2cc3ccc2nc2ccc(cc12)OCCOCCOCCOCCOCCOCCO3 | > 10 | > 10 | > 10 | > 10 | > 10 | > 10 | > 10 | > 10 | > 10 | > 10 | > 10 | > 10 | > 10 | – | > 10 | > 10 | > 10 | > 10 | > 10 | > 10 |
| O=C1C(Cl)=C(NCCF)C(=O)c2ncccc21 | 3.09 | 2.26 | 4.22 | – | 0.806 | 3.73 | 3.51 | – | > 10 | 0.408 | 2.68 | 4 | 3.41 | 2.6 | 0.392 | 3.21 | 3.65 | 3.35 | 4.07 | 2.98 |
| C=CCN(CCN(CC=C)S(=O)(=O)c1ccc(C)cc1)S(=O)(=O)c1ccc(C)cc1 | > 100 | > 100 | > 100 | > 100 | > 100 | > 100 | > 100 | > 100 | > 100 | > 100 | – | > 100 | > 100 | > 100 | > 100 | – | > 100 | > 100 | > 100 | – |
| COC(=O)[C@H](Cc1c[nH]c2ccccc12)NC(=O)c1ccccc1I | 59.3 | 44.8 | 47 | 35.2 | – | > 100 | – | > 100 | 37.4 | 84.5 | 34.1 | > 100 | > 100 | 33.4 | 42.6 | 34.6 | 77.3 | > 100 | > 100 | 35.8 |
